One data set relates to Rabbit Cornea Homogenate. Nature of the data set: Rabbit Cornea Homogenate Stability Assay (rabbit cornea esterase assay). It is filed as in vitro ADME. To be noted: 37° C. The protocol:
Determining Rabbit Cornea Homogenate stability of the test compounds was performed using HPLC-MS. The assay was performed at two concentrations of Rabbit Cornea Homogenate (0.15 mg/ml and 0.45 mg/ml total protein) so that any hydrolysis observed could be assigned as esterase dependent or not.
Five rabbit corneas (e.g. New Zealand Whites) of approx. 50 mg each were sliced and scraped with a scalpel and tweezers until reduced to small (1-3 mm), thin pieces. These were transferred into a tared vial and accurately weighed, then diluted with 10 volumes aqueous PBS pH7.4
Sample was cooled intermittently on ice and shear homogenized for 3 minutes, then centrifuged for 3 min at 3000 rpm. The supernatant was pipetted off into a vial, and total protein concentration determined at 280 nm. Sample was stored at −78° C.
10 mM Compound stocks were diluted to 100 μM in a 96 deep-well plate: 10 μl of 10 mM Compound stock was added to 990 μl 50 mM HEPES, pH7.5 buffer.
Compounds were further diluted to 10 μM: 100 μl of 100 μM compound was added to 900 μl 50 mM HEPES, pH7.5 buffer.
Esterase homogenate was diluted to 300 ng/μl and 900 ng/μl
A heater shaker was set to 37° C. Into a suitable 96 well plate (Run Plate), 75 μl of 300 or 900 ng/μl esterase homogenate was pipetted into each of the required wells (2 min, 5 min, 10 min, 20 min and 45 min). The plate was sealed and then warmed at 37° C. for 5 min. Another 96 well PCR plate is put on ice (Kill Plate). To this was added 100 μl of MeCN to each well, labelled 0 min, 2 min, 5 min, 10 min, 20 min and 45 min. The plate was covered to minimise evaporation. For the T=0 sample only, to the 100 μl cold MeCN stop solution was added 50 μl of 300 or 900 ng/μl esterase homogenate followed by 50 μl of 10 μM compound solution For the remaining time points, 75 μl of 10 μM compound solution was added to the Run Plate starting from T=45 min row and ending with T=2 min row. At the appropriate time point, 100 μl of the assay mixture was added to the matching kill plate well containing 100 μl of cold MeCN. Samples were analysed as soon as practicable by LCMS (Waters Xevo TQ-S or Micromass Ultima).
Parent conjugate and parent concentrations were determined against appropriate standard response curves and the half-life (T1/2) of the parent conjugate was calculated using the peak area of the parent conjugate at each time point in the linear region of the log—linear plot.

Data set [1] is described as follows: Aqueous Hydrolysis Stability Assay. Format: physicochemical. The conditions noted are these: 100 μM in 50 mM HEPES pH 7.5 buffer or 1:1 Acetonitrile:Water, room temperature. The protocol: Determination of aqueous stability of the test compounds was performed using HPLC-MS. A test compound 10 mM stock solution was prepared in DMSO. 10 μl of the DMSO stock solution was dissolved in 990 μl of 50 mM HEPES pH 7.5 buffer or 1:1 (v/v) of Acetonitrile:Water to make a 100 μM solution. Final DMSO concentration was 1%. The solution was kept at room temperature and injected without delay into the LCMS (Waters Xevo TQ-S or Micromass Ultima). Additional injections were performed at appropriate time points.
Half-life (T1/2) of the parent conjugate was calculated using the peak area of the parent conjugate at each time point in the linear region of the log—linear plot.

The mark [2] stands for this setting: Cornea Homogenate Conc 0.15 mg/mL.
Setting [3] is: Cornea Homogenate Conc 0.45 mg/mL.

Structures are written as SMILES.

Take `CC(OC(=O)OCC(COC(=O)C(C)(C)C)COC(=O)C(C)(C)C)OC(=O)[C@H](Cc1cccc(S(C)(=O)=O)c1)NC(=O)c1c(Cl)cc2c(c1Cl)CCN(C(=O)c1ccc3ccoc3c1)C2` (stereo partly drawn) [Comp 12, 2-((8S)-10-(2-(benzofuran-6-carbonyl)-5,7-dichloro-1,2,3,4-tetrahydroisoquinolin-6-yl)-5-methyl-8-(3-(methylsulfonyl)benzyl)-3,7,10-trioxo-2,4,6-trioxa-9-azadecyl)propane-1,3-diyl bis(2,2-dimethylpropanoate)]: in the data set on Rabbit Cornea Homogenate (setting [2]), the “API Formation rate” value is listed as “a (API formation rate<0.5%/min)” and the “Esterase % Lifitegrast formation at 45 min” value was “A (percent active pharmaceutical ingredient (API) formation<25%)”. In the data set with Rabbit Cornea Homogenate (setting [3]), the “API Formation rate” value is given as “a (API formation rate<0.5%/min)” and the “Esterase % Lifitegrast formation at 45 min” value is on record as “A (percent active pharmaceutical ingredient (API) formation<25%)”. Moreover, the “Hydrolytic % Lifitegrast formation at [time]” value in data set [1] (at 142 min) is “B [142 min] (percent API formation 1.5-4%)”.
For `CCC(=O)OC(C)OC(=O)[C@H](Cc1cccc(S(C)(=O)=O)c1)NC(=O)c1c(Cl)cc2c(c1Cl)CCN(C(=O)c1ccc3ccoc3c1)C2` (stereo partly drawn) [Comp 15, 1-(propionyloxy)ethyl (2S)-2-(2-(benzofuran-6-carbonyl)-5,7-dichloro-1,2,3,4-tetrahydroisoquinoline-6-carboxamido)-3-(3-(methylsulfonyl)phenyl) propanoate], in the data set on Rabbit Cornea Homogenate (setting [2]), the “API Formation rate” value was “d (API formation rate>1.5%/min)” and the “Esterase % Lifitegrast formation at 45 min” value is “C (percent API formation 51% to 75%)”. Moreover, in the data set with Rabbit Cornea Homogenate (setting [3]), the “API Formation rate” value is recorded as “d (API formation rate>1.5%/min)” and the “Esterase % Lifitegrast formation at 45 min” value is “D (percent API formation>75%)”. The “Hydrolytic % Lifitegrast formation at [time]” value in data set [1] (at 45 min) was “B [45 min] (percent API formation 1.5-4%)”.
As to `CC(=O)OC(C)OC(=O)[C@H](Cc1cccc(S(C)(=O)=O)c1)NC(=O)c1c(Cl)cc2c(c1Cl)CCN(C(=O)c1ccc3ccoc3c1)C2` (stereo partly drawn) [Comp 14, 1-acetoxyethyl (2S)-2-(2-(benzofuran-6-carbonyl)-5,7-dichloro-1,2,3,4-tetrahydroisoquinoline-6-carboxamido)-3-(3-(methylsulfonyl)phenyl) propanoate], in the data set on Rabbit Cornea Homogenate (setting [2]), the “API Formation rate” value is reported as “c (API formation rate 1.0-1.5%/min)” and the “Esterase % Lifitegrast formation at 45 min” value is given as “C (percent API formation 51% to 75%)”. In the data set on Rabbit Cornea Homogenate (setting [3]), the “API Formation rate” value is “d (API formation rate>1.5%/min)” and the “Esterase % Lifitegrast formation at 45 min” value is “D (percent API formation>75%)”. The “Hydrolytic % Lifitegrast formation at [time]” value in data set [1] (at 142 min) was “B [142 min] (percent API formation 1.5-4%)”.
With `CC(OC(=O)[C@H](Cc1cccc(S(C)(=O)=O)c1)NC(=O)c1c(Cl)cc2c(c1Cl)CCN(C(=O)c1ccc3ccoc3c1)C2)OC(=O)[C@@H](C)O` (stereo partly drawn) [Comp 18, 1-(((R)-2-hydroxypropanoyl)oxy) ethyl (2S)-2-(2-(benzofuran-6-carbonyl)-5,7-dichloro-1,2,3,4-tetrahydroisoquinoline-6-carboxamido)-3-(3-(methylsulfonyl)phenyl) propanoate], the “API Formation rate” value with Rabbit Cornea Homogenate (setting [2]) is listed as “c (API formation rate 1.0-1.5%/min)”; in the data set with Rabbit Cornea Homogenate (setting [3]), “d (API formation rate>1.5%/min)”. Moreover, the “Esterase % Lifitegrast formation at 45 min” value with Rabbit Cornea Homogenate (setting [2]) is on record as “C (percent API formation 51% to 75%)”; with Rabbit Cornea Homogenate (setting [3]), “D (percent API formation>75%)”. Besides, in data set [1] (at 45 min), the “Hydrolytic % Lifitegrast formation at [time]” value is “C [45 min] (percent API formation>4%)”.
For the compound `CC(C)OC(=O)OC(C)OC(=O)[C@H](Cc1cccc(S(C)(=O)=O)c1)NC(=O)c1c(Cl)cc2c(c1Cl)CCN(C(=O)c1ccc3ccoc3c1)C2` (stereo partly drawn) [Comp 5, 1-((isopropoxycarbonyl)oxy)ethyl (2S)-2-(2-(benzofuran-6-carbonyl)-5,7-dichloro-1,2,3,4-tetrahydroisoquinoline-6-carboxamido)-3-(3-(methylsulfonyl)phenyl) propanoate], the results for the “API Formation rate” value in the data set with Rabbit Cornea Homogenate (setting [2]) and with Rabbit Cornea Homogenate (setting [3]) were “b (API formation rate 0.5-1.0%/min)” and “d (API formation rate>1.5%/min)”, respectively. The “Esterase % Lifitegrast formation at 45 min” value with Rabbit Cornea Homogenate (setting [2]) was “B (percent API formation 25% to 50%)”; in the data set on Rabbit Cornea Homogenate (setting [3]), “D (percent API formation>75%)”. For the same compound, in data set [1] (at 192 min), the “Hydrolytic % Lifitegrast formation at [time]” value is “A [192 min] (percent active pharmaceutical ingredient (API) formation<1.5%)”.
For `CC(OC(=O)CO)OC(=O)[C@H](Cc1cccc(S(C)(=O)=O)c1)NC(=O)c1c(Cl)cc2c(c1Cl)CCN(C(=O)c1ccc3ccoc3c1)C2` (stereo partly drawn) [Comp 19, 1-(2-hydroxyacetoxy)ethyl (2S)-2-(2-(benzofuran-6-carbonyl)-5,7-dichloro-1,2,3,4-tetrahydroisoquinoline-6-carboxamido)-3-(3-(methylsulfonyl)phenyl) propanoate], in the data set with Rabbit Cornea Homogenate (setting [2]), the “API Formation rate” value is on record as “b (API formation rate 0.5-1.0%/min)” and the “Esterase % Lifitegrast formation at 45 min” value is “B (percent API formation 25% to 50%)”. Further, in the data set on Rabbit Cornea Homogenate (setting [3]), the “API Formation rate” value is given as “b (API formation rate 0.5-1.0%/min)” and the “Esterase % Lifitegrast formation at 45 min” value was “B (percent API formation 25% to 50%)”. Besides, in data set [1] (at 45 min), the “Hydrolytic % Lifitegrast formation at [time]” value is “B [45 min] (percent API formation 1.5-4%)”.
`CC(OC(=O)[C@H](Cc1cccc(S(C)(=O)=O)c1)NC(=O)c1c(Cl)cc2c(c1Cl)CCN(C(=O)c1ccc3ccoc3c1)C2)OC(=O)C(C)(C)C` (stereo partly drawn) [Comp 17, 1-(((S)-2-(2-(benzofuran-6-carbonyl)-5,7-dichloro-1,2,3,4-tetrahydroisoquinoline-6-carboxamido)-3-(3-(methylsulfonyl)phenyl)propanoyl)oxy)ethyl pivalate]: in the data set on Rabbit Cornea Homogenate (setting [2]), the “API Formation rate” value is on record as “b (API formation rate 0.5-1.0%/min)” and the “Esterase % Lifitegrast formation at 45 min” value is “B (percent API formation 25% to 50%)”. Moreover, in the data set with Rabbit Cornea Homogenate (setting [3]), the “API Formation rate” value is listed as “c (API formation rate 1.0-1.5%/min)” and the “Esterase % Lifitegrast formation at 45 min” value is given as “C (percent API formation 51% to 75%)”. In data set [1] (at 45 min), the “Hydrolytic % Lifitegrast formation at [time]” value is “A [45 min] (percent active pharmaceutical ingredient (API) formation<1.5%)”.
Consider `CC(OC(=O)OCC(CO)CO)OC(=O)[C@H](Cc1cccc(S(C)(=O)=O)c1)NC(=O)c1c(Cl)cc2c(c1Cl)CCN(C(=O)c1ccc3ccoc3c1)C2` (stereo partly drawn) [Comp 10, 1-(((3-hydroxy-2-(hydroxymethyl)propoxy)carbonyl)oxy)ethyl (2S)-2-(2-(benzofuran-6-carbonyl)-5,7-dichloro-1,2,3,4-tetrahydroisoquinoline-6-carboxamido)-3-(3-(methylsulfonyl)phenyl) propanoate], for which, in the data set on Rabbit Cornea Homogenate (setting [2]), the “API Formation rate” value is given as “b (API formation rate 0.5-1.0%/min)” and the “Esterase % Lifitegrast formation at 45 min” value is listed as “A (percent active pharmaceutical ingredient (API) formation<25%)”. In addition, in the data set on Rabbit Cornea Homogenate (setting [3]), the “API Formation rate” value is given as “b (API formation rate 0.5-1.0%/min)” and the “Esterase % Lifitegrast formation at 45 min” value is listed as “B (percent API formation 25% to 50%)”. Also, in data set [1] (at 142 min), the “Hydrolytic % Lifitegrast formation at [time]” value was “C [142 min] (percent API formation>4%)”.
As to `COC(=O)[C@@H](C)OC(=O)OC(C)OC(=O)[C@H](Cc1cccc(S(C)(=O)=O)c1)NC(=O)c1c(Cl)cc2c(c1Cl)CCN(C(=O)c1ccc3ccoc3c1)C2` (stereo partly drawn) [Comp 7, 1-(((((R)-1-methoxy-1-oxopropan-2-yl)oxy)carbonyl)oxy)ethyl (2S)-2-(2-(benzofuran-6-carbonyl)-5,7-dichloro-1,2,3,4-tetrahydroisoquinoline-6-carboxamido)-3-(3-(methylsulfonyl)phenyl) propanoate], in the data set on Rabbit Cornea Homogenate (setting [2]), the “API Formation rate” value is “b (API formation rate 0.5-1.0%/min)” and the “Esterase % Lifitegrast formation at 45 min” value was “B (percent API formation 25% to 50%)”. Moreover, in the data set on Rabbit Cornea Homogenate (setting [3]), the “API Formation rate” value is recorded as “c (API formation rate 1.0-1.5%/min)” and the “Esterase % Lifitegrast formation at 45 min” value is given as “C (percent API formation 51% to 75%)”. Moreover, the “Hydrolytic % Lifitegrast formation at [time]” value in data set [1] (at 142 min) was “B [142 min] (percent API formation 1.5-4%)”.

These data come from patent US10875845B2, “Compounds and methods for the treatment of ocular disorders” (Azura Ophthalmics Ltd., priority 2019, dated 2020).
